Here are results for 1 compound from publication PMC4912077 (PLoS ONE, 2016).

The subject of experiment [1] is PCP site within the NMDAR channel. Put plainly: NMDAR binding, [3H]-MK-801 displacement in rat forebrain homogenate.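 Also: IC50 by nonlinear regression of percent specific binding versus log concentration, Ki from IC50 via Cheng-Prusoff, raw counts in CPM, duplicates repeated at least three times.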 The conditions noted are these: lower affinity.
Experimental: The reaction was terminated by vacuum filtration using a 24 well cell harvester (Brandel, Gaithersburg, MD) over presoaked GF/B glass fiber filters (Brandel, Gaithersburg, MD). Filters were washed with room temperature assay buffer (3 x 5 mL). […] IC50 values were determined in Graphpad Prism 5.0 using non-linear regression with log-concentration plotted against percent specific binding. […] Ki values were calculated using the equation of Cheng and Prusoff [24]. […] Protein concentration was determined via the Bradford method using Coomassie protein assay reagent (Sigma, USA) [25] with rat albumin (Sigma, USA) as standard. Experiments were performed in duplicate and repeated a minimum of three times.
The subject of experiment [2] is Sprague–Dawley rats. The conditions noted are these: rat; cited from earlier work.
The test system of experiment [3] is PCP site within the NMDAR channel. The conditions noted are these: [3H]-(+)-MK-801, rat forebrain, cited from earlier work.
Experiment [4] concerns Sprague–Dawley rats. Put plainly: Pre-pulse inhibition (PPI) of acoustic startle in rats. It is filed as in vivo, rat. The conditions noted are these: higher potency. The procedure: Male Sprague–Dawley rats from Harlan Industries (Indianapolis, IN, USA; initial weight 250–275 g) were housed in pairs under a 12-h reverse light/dark cycle (lights off at 0700 h). Use of a reversed light/dark cycle allows behavioral testing to be conducted during the awake phase of the light/dark cycle. Food and water were available ad libitum. Animals were acclimatized for approximately 1 wk after arrival prior to behavioral testing and maintained in Association for Assessment and Accreditation of Laboratory Animal Care (AAALAC)-approved facilities that meet all federal and state guidelines. Procedures were approved by the University of California San Diego institutional animal care and use committee. Principles of laboratory animal care were followed.
DPH hydrochloride and 2-MXP hydrochloride were dissolved in water containing 5% Tween-80 and administered subcutaneously, 10-min prior to the start of the startle test session. The injection volume was 1 ml/kg.
Eight startle chambers (SR-LAB system, San Diego Instruments, San Diego, CA, USA) were used to measure startle reactivity in rats. The startle test chambers were sound-attenuated, lighted, and ventilated enclosures containing a clear nonrestrictive cylindrical Plexiglas stabilimeter, 8.2 cm in diameter. A high-frequency loudspeaker mounted 24 cm above the Plexiglas cylinder produced all acoustic stimuli. The peak and average amplitudes of the startle response were detected by a piezoelectric accelerometer. At the onset of the startling stimulus, 100 1-ms readings were recorded, and the average amplitude was used to determine the magnitude of the startle response (measured in arbitrary units).
Acoustic startle test sessions consisted of startle trials (pulse-alone) and prepulse trials (prepulse + pulse). The pulse-alone trial consisted of a 40-ms 120-dB pulse of broadband white noise. Prepulse + pulse trials consisted of a 20-ms acoustic prepulse, an 80-ms delay, and then a 40-ms 120-dB startle pulse (100-ms onset–onset). There was an average of 15 s (range = 6–22 s) between trials. During each inter-trial interval, the movements of the animals were recorded once to measure response when no stimulus was present (data not shown). Each startle session began with a 5 min acclimation period to a 65-dB broadband noise that was present continuously throughout the session. One week after arrival, animals were tested in a brief baseline startle/PPI session to create treatment groups matched for levels of startle and PPI. The startle test session contained 12 pulse-alone trials and 36 prepulse + pulse trials (12 prepulses each of 68-, 71-, and 77-dB [equivalent to 3-, 6-, and 12-dB above background]) presented in a pseudo-randomized order. Six pulse-alone trials were presented at the beginning and the end of the test session but were not used in the calculation of PPI values. Raw data for all PPI experiments are provided as supporting information (S5 File).
The amount of PPI was calculated as a percentage score for each prepulse + pulse trial type: %PPI = 100−{[(startle response for prepulse + pulse trial)/(startle response for pulse-alone trial)] × 100}. Startle magnitude was calculated as the average response to all of the pulse-alone trials. PPI data were analyzed with two-factor analysis of variance (ANOVA) with treatment as the between-subjects factor and trial type (prepulse intensity) as a repeated measure. For experiments in which there was no significant interaction between drug and prepulse intensity, PPI data were collapsed across prepulse intensity and average PPI was used as the main dependent measure. ED50 values were calculated using nonlinear regression. Startle magnitude data were analyzed with one-factor ANOVA. Post-hoc analyses were performed using Tukey’s studentized range method. The alpha level was set at 0.05.

On to `c1ccc(C2(N3CCCCC3)CCCCC2)cc1` [PCP, Phencyclidine], for which the “[3H]MK-801 displacement affinity relative to DPH” value in experiment [1] is on record as 3 fold. For the same compound, the “ED50 for disruption of PPI” value in the experiment on Sprague–Dawley rats [2] was 3.15 µmol/kg. Moreover, the IC50 in experiment [3] was 0.091 ± 0.0013 µM. Besides, in experiment [3] (read-out: Ki ± SEM), the Ki is 0.0579 ± 0.0008 µM. Besides, the “potency to alter PPI relative to DPH” value in the experiment on Sprague–Dawley rats [4] was found to be 10 fold.
